{
  "source": "patent US9814754B2",
  "about": "“Combinations with a backbone-cyclized peptide” (POLYPHOR AG, priority 2012, dated 2017)",
  "format_in_all_cases": "in vivo",
  "key": {"[1]": {"tested_on": "Pseudomonas aeruginosa clinical isolate PAX11045", "experiment": "Murine pneumonia model, compound 1 in combination with ertapenem (Example 1)", "protocol": "The efficacy and ED50 of the compound of formula (I) (“compound 1”) in combination with ertapenem was determined against Pseudomonas aeruginosa clinical isolate PAX11045 in a pneumonia model in mice. Colony counts in lung were determined at 20 hours post treatment.\n(§1) Fresh overnight colonies of PAX11045 from a 5% Horse Blood Agar plate were suspended in 0.9% sterile saline to approximately 10^8 CFU/ml and further diluted to approximately 5×10^7 CFU/ml. Female mice (DBA/2, outbred, 18-22 g, Charles River) were anesthetized with 0.1 ml of Zoletil and inoculated via the nose with a pipette with 0.05 ml of the bacteria suspension containing approximately 10^6 CFU. 4 hours after inoculation, the mice were treated orally with 45 μl neurophen (20 mg ibuprofen/ml corresponding to approximately 30 mg/kg) as pain relief.\n1 g of ertapenem (Invanz™, MSD Denmark Aps) was dissolved in 10 ml 0.9% sterile saline to a concentration of 100 mg/ml and further diluted with saline to 5 mg/ml. The mice were treated subcutaneously with 0.2 ml in the neck region with a single dose at 3 hours post infection corresponding to 50 mg/kg on the basis of a mean animal weight of 20 g.\nThe mice were treated subcutaneously with 0.2 ml in the neck region with a single dose at 4 hours post infection with a dose calculation based on a mean animal weight of 20 g.\n(§2) Colony counts were determined post inoculation at 4 hours (untreated mice) and 24 hours (treated and vehicle-only treated mice). Immediately after the mice were sacrificed, the lungs were collected and frozen at −20° C. After thawing, the organs were homogenized in 1 ml 0.9% saline. Each sample was then 10 fold diluted in saline and 20 μl spots were applied on blood agar plates. All agar plates were incubated 18-24 hours at 35° C. in ambient air.\nThe CFU/ml in the inoculum was determined to 7.65 log10 CFU/ml corresponding to 6.35 log10 CFU/mouse.\nAt 4 hours after infection the mean log10 CFU/lung was 5.14 and the CFU level remained at a similar level after 24 hours in the vehicle-only group."}, "[2]": {"tested_on": "Pseudomonas aeruginosa clinical isolate PA9349", "experiment": "Murine pneumonia model, compound 1 in combination with ciprofloxacin (Example 3)", "protocol": "Colony counts in lung were determined at 20 hours post treatment.\nFresh overnight colonies of PA9349 from a 5% Horse Blood Agar plate were suspended in 0.9% sterile saline to approximately 10^8 CFU/ml and further diluted to approximately 10^7 CFU/ml. Female mice (C57BL/6 […], outbred, 20-25 g, Hellenic Pasteur Institute) were anesthetized with ether and inoculated via the nose with a pipette with 0.05 ml of the bacteria suspension containing approximately 10^6 CFU. After inoculation, mice were treated with paracetamol suppositories as a pain relief.\nThe mice were treated subcutaneously with 0.2 ml in the neck region with a single dose at 3 hours post infection corresponding to 20 mg/kg on the basis of a mean animal weight of 20 g.\n1 vial was further diluted with saline to 1, 0.8 and 0.4 mg/ml. The mice were treated subcutaneously with 0.25 ml (25 mg/kg dose) or 0.2 ml (for all other doses) in the neck region with a single dose at 4 hours post infection with a dose calculation based on a mean animal weight of 20 g.\nas §2"}, "[3]": {"tested_on": "Pseudomonas aeruginosa clinical isolate PA18298", "experiment": "Murine pneumonia model, compound 1 alone (Reference 3)", "protocol": "Efficacy in Murine Pneumonia Model Against Pseudomonas aeruginosa PA18298 and Estimation of ED50\nThe efficacy and ED50 of the compound of formula (I) (“compound 1”) was determined against Pseudomonas aeruginosa clinical isolate PA18298 in a pneumonia model in mice. Colony counts in the lungs were determined at 18-20 hours post treatment.\nas §1, with “PA18298” for “PAX11045”, “4×10^7” for “5×10^7”, “Zoletil (tiletamine+zolazepam)” for “Zoletil”, “1×10^6” for “10^6”\nOne vial containing 10 mg of active compound 1 was dissolved in 2 ml 0.9% sterile saline to a concentration of 5 mg/ml and was further diluted with saline to 2, 1, 0.75, 0.55, 0.275 and 0.137 mg/ml. The mice were treated subcutaneously with 0.2 ml in the neck region with a single dose at 4 hours post infection with a dose calculation based on a mean animal weight of 20 g. As positive control colistin was used in the same manner with a fixed dose of 20 mg/kg.\nas §2, with “10-fold” for “10 fold”, “18-48” for “18-24”\nThe CFU/ml in the inoculum was determined to 7.49 log10 CFU/ml corresponding to 6.20 log10 CFU/mouse.\nAt 4 hours after infection the mean log10 CFU/lung was 5.05 and the CFU level declined to 2.62 at 24 hours post inoculation in the vehicle-only group."}, "[4]": {"conditions": "in presence of 50 mg/kg ertapenem, murine lungs"}, "[5]": {"conditions": "in presence of 20 mg/kg ciprofloxacin, murine lungs"}, "[6]": {"conditions": "compound 1 alone, s.c., murine lungs"}},
  "note": "Square brackets hold non-standard residues; d marks the D form. dDab = NCC[C@@H](N)C(=O)O; Orn = NCCC[C@H](N)C(=O)O; Dab = NCC[C@H](N)C(=O)O",
  "data": [
    {"substance": "cyclo(TWI[Dab][Orn][dDab][Dab]W[Dab][Dab]AS[dP]P) [compound 1]", "values": [
      {"measurement": "effect on bacterial loads", "setting": "[1]; 2.75 mg/kg alone, lung, p<0.001", "value": "significant effect on reducing the bacterial loads"},
      {"measurement": "CFU levels compared to vehicle treatment", "setting": "[1]; combination of compound 1 (dose series) and ertapenem 50 mg/kg, lung, p<0.01-p<0.001", "value": "concentration dependent significant reduction of the CFU levels"},
      {"measurement": "Top level", "setting": "[1]; compound 1 s.c. in presence of 50 mg/kg ertapenem (s.c., 3 h post infection), murine lungs", "value": "−0.34", "unit": "log10 CFU/ml"},
      {"measurement": "1 log killing dose", "setting": "[1]; [4]", "value": 1.14, "unit": "mg/kg"},
      {"measurement": "2 log killing dose", "setting": "[1]; [4]", "value": 1.48, "unit": "mg/kg"},
      {"measurement": "Bottom level", "setting": "[1]; [4]", "value": "−2.32", "unit": "log10 CFU/ml"},
      {"measurement": "Emax", "setting": "[1]; [4]", "value": 1.98, "unit": "log10 CFU/ml"},
      {"measurement": "Static dose", "setting": "[1]; [4]", "value": 0.63, "unit": "mg/kg"},
      {"measurement": "ED50", "setting": "[1]; in presence of fixed dose of 50 mg/kg ertapenem, murine lungs", "value": 1.24, "unit": "mg/kg"},
      {"measurement": "effect on bacterial loads", "setting": "[2]; 5.5 mg/kg alone, lung, p<0.001", "value": "significant effect on reducing the bacterial loads"},
      {"measurement": "CFU levels compared to vehicle treatment", "setting": "[2]; combination of compound 1 at 1.88-25 mg/kg and ciprofloxacin 20 mg/kg, lung, p<0.001", "value": "significant reduction of the CFU levels"},
      {"measurement": "Top level", "setting": "[2]; compound 1 s.c. in presence of 20 mg/kg ciprofloxacin (s.c., 3 h post infection), murine lungs", "value": "−0.21", "unit": "log10 CFU/ml"},
      {"measurement": "1 log killing dose", "setting": "[2]; [5]", "value": 0.45, "unit": "mg/kg"},
      {"measurement": "2 log killing dose", "setting": "[2]; [5]", "value": 1.00, "unit": "mg/kg"},
      {"measurement": "3log killing dose", "setting": "[2]; [5]", "value": 1.82, "unit": "mg/kg"},
      {"measurement": "Bottom level", "setting": "[2]; [5]", "value": "−4.17", "unit": "log10 CFU/ml"},
      {"measurement": "Emax", "setting": "[2]; [5]", "value": 3.96, "unit": "log10 CFU/ml"},
      {"measurement": "ED50", "setting": "[2]; in presence of fixed dose of 20 mg/kg ciprofloxacin, murine lungs", "value": 1.55, "unit": "mg/kg"},
      {"measurement": "CFU levels compared to vehicle treatment", "setting": "[3]; 11-20 mg/kg, lungs, p<0.01-p<0.001", "value": "significant reduction of the CFU levels"},
      {"measurement": "Top level", "setting": "[3]; compound 1 alone, s.c. single dose 4 h post infection, murine lungs", "value": "−3.60", "unit": "log10 CFU/ml"},
      {"measurement": "Bottom level", "setting": "[3]; [6]", "value": "−2.48", "unit": "log10 CFU/ml"},
      {"measurement": "Emax", "setting": "[3]; [6]", "value": 1.12, "unit": "log10 CFU/ml"},
      {"measurement": "Static dose", "setting": "[3]; [6]", "value": 9.15, "unit": "mg/kg"},
      {"measurement": "ED50", "setting": "[3]; compound 1 alone, s.c., murine lungs, sigmoidal dose-response model (variable slope)", "value": 26.6, "unit": "mg/kg"}
    ]}
  ]
}
